Among the data in patent publication US7803792B2, “Quaternary ammonium compounds” (Asahi Kasei Pharma Corporation, priority 2002, dated 2010) are IC50 values, retold here.

One may read the IC50 as the concentration that inhibits the measured activity by half.

The target of this experiment is T1, human IBAT (Homo sapiens, UniProt Q12908).
T1 construct: expressed in transfected cells; host or cells: Cos 7
T1 sequence (Q12908 1-348): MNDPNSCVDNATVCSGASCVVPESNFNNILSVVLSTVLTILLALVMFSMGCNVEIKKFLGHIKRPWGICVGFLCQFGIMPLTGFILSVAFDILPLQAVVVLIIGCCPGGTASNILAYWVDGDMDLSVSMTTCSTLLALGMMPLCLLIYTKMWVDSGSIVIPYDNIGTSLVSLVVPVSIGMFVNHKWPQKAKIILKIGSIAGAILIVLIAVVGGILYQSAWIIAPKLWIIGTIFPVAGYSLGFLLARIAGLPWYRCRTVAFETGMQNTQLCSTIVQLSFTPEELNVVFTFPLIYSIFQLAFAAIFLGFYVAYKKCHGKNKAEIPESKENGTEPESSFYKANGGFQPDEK
Nature of the experiment: In vitro assay of temporarily expressed human IBAT transporter using Cos 7 cells (Test Example 8). In kind it is cell-based. The note with it: Cos 7 cells temporarily expressing human IBAT; [3H] taurocholate 8 μM, 37° C., 60 minutes. On the procedure: In Vitro Assay of Compounds Which Inhibit Temporarily Expressed Human IBAT Transporter or Rat IBAT Transporter Using Cos 7 Cells
In this test example, the in vitro assay of the compounds which inhibit temporarily expressed human IBAT transporter or rat IBAT transporter using Cos cells was carried out according to the method described in Am. J. Physiol., 274, G157-169.
That is, […] Cos 7 were inoculated on a 24-well cell plate. One day later, 0.3 μg per well of cDNA of a human IBAT or a rat IBAT was transfected by using FuGENE6 (manufactured by ROCHE PHARMACEUTICAL CO., LTD.). For the assay, the cells cultured for one day after the transfection were used and the following procedure was followed. The cells were washed once with an assay buffer, Hank's buffer solution containing 25 mM glucose and with 10 mM HEPES (pH 7.4), and then the assay buffer was replaced by an assay buffer to which the test compound was added. After adding [^3H] taurocholate to a final concentration of 8 μM, the cells were incubated at 37° C. for 60 minutes. [^3H] taurocholate was allowed to be incorporated in Cos 7 cells through human IBAT or rat IBAT. The reaction was stopped by washing twice with a buffer prepared by adding 1 mM taurocholate to the assay buffer and lyzing the cells with 0.2M NaOH. Measurement of radioactivity was carried out by introducing the cell lyzate in 4 ml of liquid scintillation cocktail, stirring the mixture well, and then measuring the radioactivity by a scintillation counter.
In turn, `CCCCC1(CCCC)CS(=O)(=O)c2ccc(N(C)C)cc2C(c2cccc(NC(=S)NCCCCC[N+]34CCC(CC3)CC4)c2)N1` (centres unmarked) [Example 1433] returned an IC50 of 103 nM.

For the compound `CCCCC1(CCCC)CS(=O)(=O)c2ccc(N(C)C)cc2C(c2cccc(NC(=S)NCCCCCC[N+](C)(C)Cc3ccccc3)c2)N1` (centres unmarked) [Example 1555], the IC50 turned out to be 153 nM. With `CCCCC1(CCCC)CS(=O)(=O)c2ccc(N(C)C)cc2C(c2cccc(NC(=S)NCCCCCC[N+]34CCC(CC3)CC4)c2)N1` (centres unmarked) [Example 1810], the IC50 amounted to 167 nM. The same measure for `CCCCCC[N+](C)(C)Cc1ccc(NC(=S)Nc2cccc(C3NC(CCCC)(CCCC)CS(=O)(=O)c4ccc(N(C)C)cc43)c2)cc1` (centres unmarked) [Example 3410]: 68 nM; for `CCCCCCCC[N+](C)(C)Cc1ccc(NC(=S)Nc2cccc(C3NC(CCCC)(CCCC)CS(=O)(=O)c4ccc(N(C)C)cc43)c2)cc1` (centres unmarked) [Example 3412]: 75 nM; for `CCCCCCCCC[N+](C)(C)Cc1ccc(NC(=S)Nc2cccc(C3NC(CCCC)(CCCC)CS(=O)(=O)c4ccc(N(C)C)cc43)c2)cc1` (centres unmarked) [Example 3413]: 73 nM. The same measure for `CCCCCCCCCC[N+](C)(C)Cc1ccc(NC(=S)Nc2cccc(C3NC(CCCC)(CCCC)CS(=O)(=O)c4ccc(N(C)C)cc43)c2)cc1` (centres unmarked) [Example 3414]: 88 nM. The same measure for `CCCCC1(CCCC)CS(=O)(=O)c2ccc(N(C)C)cc2C(c2cccc(NC(=S)Nc3ccc(C[N+](C)(CCC)CCC)cc3)c2)N1` (centres unmarked) [Example 3426]: 58 nM. With `C=CC[N+](C)(C)Cc1ccc(NC(=S)Nc2cccc(C3NC(CCCC)(CCCC)CS(=O)(=O)c4ccc(N(C)C)cc43)c2)cc1` (centres unmarked) [Example 3429], half-maximal inhibition (IC50) required 55 nM.

As for `C#CC[N+](C)(C)Cc1ccc(NC(=S)Nc2cccc(C3NC(CCCC)(CCCC)CS(=O)(=O)c4ccc(N(C)C)cc43)c2)cc1` (centres unmarked) [Example 3433], the IC50 is 55 nM. Regarding `CCC#CC[N+](C)(C)Cc1ccc(NC(=S)Nc2cccc(C3NC(CCCC)(CCCC)CS(=O)(=O)c4ccc(N(C)C)cc43)c2)cc1` (centres unmarked) [Example 3434], the half-inhibitory concentration (IC50) turned out to be 71 nM. The same measure for `CCCCC1(CCCC)CS(=O)(=O)c2ccc(N(C)C)cc2C(c2cccc(NC(=S)Nc3ccc(C[N+](C)(C)C(C)c4ccccc4)cc3)c2)N1` (centres unmarked) [Example 3441]: 85 nM; for `CCCCC1(CCCC)CS(=O)(=O)c2ccc(N(C)C)cc2C(c2cccc(NC(=S)Nc3ccc(C[N+](C)(C)Cc4cccs4)cc3)c2)N1` (centres unmarked) [Example 3449]: 55 nM. `CCCCC1(CCCC)CS(=O)(=O)c2ccc(N(C)C)cc2C(c2cccc(NC(=S)Nc3ccc(C[N+](C)(C)CC(C)O)cc3)c2)N1` (centres unmarked) [Example 3454] displayed an IC50 of 68 nM. `CCCCC1(CCCC)CS(=O)(=O)c2ccc(N(C)C)cc2C(c2cccc(NC(=S)Nc3ccc(C[N+](C)(C)CCOC(=O)c4ccccc4)cc3)c2)N1` (centres unmarked) [Example 3558]: the IC50 amounted to 70 nM. The same measure for `CCCCC1(CCCC)CS(=O)(=O)c2ccc(N(C)C)cc2C(c2cccc(NC(=S)Nc3ccc(C[N+]4(CC)CCCC4)cc3)c2)N1` (centres unmarked) [Example 3568]: 94 nM; for `CCCCC1(CCCC)CS(=O)(=O)c2ccc(N(C)C)cc2C(c2cccc(NC(=S)Nc3ccc(C[N+]4(C)CCCCC4)cc3)c2)N1` (centres unmarked) [Example 3587]: 70 nM. The same measure for `CCCCC1(CCCC)CS(=O)(=O)c2ccc(N(C)C)cc2C(c2cccc(NC(=S)Nc3ccc(C[N+]4(Cc5ccccc5)CCCCC4)cc3)c2)N1` (centres unmarked) [Example 3593]: 70 nM; for `CCCCC1(CCCC)CS(=O)(=O)c2ccc(N(C)C)cc2C(c2cccc(NC(=S)Nc3ccc(C[N+]4(C)CCC(O)CC4)cc3)c2)N1` (centres unmarked) [Example 3599]: 54 nM; for `CCCCC1(CCCC)CS(=O)(=O)c2ccc(N(C)C)cc2C(c2cccc(NC(=S)Nc3ccc(C[N+]4(Cc5ccccc5)CCCC(O)C4)cc3)c2)N1` (centres unmarked) [Example 3604]: 45 nM. The same measure for `CCCCC1(CCCC)CS(=O)(=O)c2ccc(N(C)C)cc2C(c2cccc(NC(=S)Nc3ccc(C[N+]45CCC(CC4)C(O)C5)cc3)c2)N1` (centres unmarked) [Example 3697]: 69 nM; for `CCCCC1(CCCC)CS(=O)(=O)c2ccc(N(C)C)cc2C(c2cccc(NC(=S)Nc3ccc(C[N+]45CCC(CC4)C(=O)C5)cc3)c2)N1` (centres unmarked) [Example 3698]: 72 nM; for `CCCCC1(CCCC)CS(=O)(=O)c2ccc(N(C)C)cc2C(c2cccc(NC(=S)Nc3ccc(C[n+]4ccccc4)cc3)c2)N1` (centres unmarked) [Example 3708]: 70 nM.

Turning to `CCCCC1(CCCC)CS(=O)(=O)c2ccc(N(C)C)cc2C(c2cccc(NC(=S)Nc3ccc(C[n+]4ccc(CCC)cc4)cc3)c2)N1` (centres unmarked) [Example 3711], the IC50 was found to be 63 nM.

`CCCCC(CCCC)c1cc[n+](Cc2ccc(NC(=S)Nc3cccc(C4NC(CCCC)(CCCC)CS(=O)(=O)c5ccc(N(C)C)cc54)c3)cc2)cc1` (centres unmarked) [Example 3716] yielded a concentration for half-maximal inhibition (IC50) of 89 nM. Turning to `CCCCC1(CCCC)CS(=O)(=O)c2ccc(N(C)C)cc2C(c2cccc(NC(=S)Nc3ccc(C[n+]4ccc(-c5ccccc5)cc4)cc3)c2)N1` (centres unmarked) [Example 3717], the IC50 was 30 nM. This IC50 is about 3-fold lower than that of the compound before. Compound `CCCCC1(CCCC)CS(=O)(=O)c2ccc(N(C)C)cc2C(c2cccc(NC(=S)Nc3ccc(C[n+]4cccc(CC)c4)cc3)c2)N1` (centres unmarked) [Example 3722] had an IC50 of 39 nM. The same measure for `CCCCC1(CCCC)CS(=O)(=O)c2ccc(N(C)C)cc2C(c2cccc(NC(=S)Nc3ccc(C[n+]4cccc(-c5ccccc5)c4)cc3)c2)N1` (centres unmarked) [Example 3724]: 69 nM. The same measure for `CCCCC1(CCCC)CS(=O)(=O)c2ccc(N(C)C)cc2C(c2cccc(NC(=S)Nc3ccc(C[n+]4cccc(Cc5ccccc5)c4)cc3)c2)N1` (centres unmarked) [Example 3725]: 52 nM; for `CCCCC1(CCCC)CS(=O)(=O)c2ccc(N(C)C)cc2C(c2cccc(NC(=S)Nc3ccc(C[n+]4cccc(-c5cccs5)c4)cc3)c2)N1` (centres unmarked) [Example 3726]: 73 nM; for `CCCCC1(CCCC)CS(=O)(=O)c2ccc(N(C)C)cc2C(c2cccc(NC(=S)Nc3ccc(C[n+]4ccc(C)c(C)c4)cc3)c2)N1` (centres unmarked) [Example 3727]: 66 nM. The same measure for `CCCCC1(CCCC)CS(=O)(=O)c2ccc(N(C)C)cc2C(c2cccc(NC(=S)Nc3ccc(C[n+]4cc(C)cc(C)c4)cc3)c2)N1` (centres unmarked) [Example 3729]: 88 nM. As to `CCCCC1(CCCC)CS(=O)(=O)c2ccc(N(C)C)cc2C(c2cccc(NC(=S)Nc3ccc(C[n+]4cc(C)cc(-c5ccccc5)c4)cc3)c2)N1` (centres unmarked) [Example 3730], the IC50 came to 84 nM. The IC50 values of the last two compounds are within 1.5-fold of each other.

`CCCCC1(CCCC)CS(=O)(=O)c2ccc(N(C)C)cc2C(c2cccc(NC(=S)Nc3ccc(C[n+]4ccc(CCCO)cc4)cc3)c2)N1` (centres unmarked) [Example 3733] showed an IC50 of 57 nM. For `CCCCC1(CCCC)CS(=O)(=O)c2ccc(N(C)C)cc2C(c2cccc(NC(=S)Nc3ccc(C[n+]4ccc(C(C)=O)cc4)cc3)c2)N1` (centres unmarked) [Example 3736], the IC50 was 50 nM. Take `CCCCC1(CCCC)CS(=O)(=O)c2ccc(N(C)C)cc2C(c2cccc(NC(=S)Nc3ccc(C[n+]4cccc(C(=O)c5ccccc5)c4)cc3)c2)N1` (centres unmarked) [Example 3748]: the IC50 came out at 81 nM. `CCCCCCOC(=O)c1ccc[n+](Cc2ccc(NC(=S)Nc3cccc(C4NC(CCCC)(CCCC)CS(=O)(=O)c5ccc(N(C)C)cc54)c3)cc2)c1` (centres unmarked) [Example 3750] gave an IC50 of 75 nM. The same measure for `CCCCC1(CCCC)CS(=O)(=O)c2ccc(N(C)C)cc2C(c2cccc(NC(=S)Nc3ccc(C[n+]4ccc(C(N)=O)cc4)cc3)c2)N1` (centres unmarked) [Example 3754]: 92 nM; for `CCCCC1(CCCC)CS(=O)(=O)c2ccc(N(C)C)cc2C(c2cccc(NC(=S)Nc3ccc(C[n+]4ccc(CCc5ccncc5)cc4)cc3)c2)N1` (centres unmarked) [Example 3764]: 80 nM; for `CCCCC1(CCCC)CS(=O)(=O)c2ccc(N(C)C)cc2C(c2cccc(NC(=S)Nc3ccc(C[n+]4cccc5ccccc54)cc3)c2)N1` (centres unmarked) [Example 3768]: 72 nM. The same measure for `CCCCC1(CCCC)CS(=O)(=O)c2ccc(N(C)C)cc2C(c2cccc(NC(=S)Nc3ccc(C[n+]4cccc5cc(C)ccc54)cc3)c2)N1` (centres unmarked) [Example 3770]: 57 nM; for `CCCCC1(CCCC)CS(=O)(=O)c2ccc(N(C)C)cc2C(c2cccc(NC(=S)Nc3ccc(C[n+]4cccc5cc(C(C)C)ccc54)cc3)c2)N1` (centres unmarked) [Example 3772]: 89 nM. The same measure for `CCCCC1(CCCC)CS(=O)(=O)c2ccc(N(C)C)cc2C(c2cccc(NC(=S)CCCCC[N+]34CCC(CC3)C(O)C4)c2)N1` (centres unmarked) [Example 3854]: 28 nM. `CCCCC1(CCCC)CS(=O)(=O)c2ccc(N(C)C)cc2C(c2cccc(NC(=S)Nc3ccc(C[n+]4cccc5c4CCCC5)cc3)c2)N1` (centres unmarked) [Example 4221] registered an IC50 of 43 nM.
